One test concerns HepG2 cells. As to the kind of experiment: Cellular uptake assay of AF488-labeled antibody (HepG2). The class given is cell-based. The essentials: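 Ternary-complex uptake via ASGPR was imaged after fixation: the read-out is AF488-positive HepG2 cells divided by total DAPI nuclei. Degrader dilutions (IgG- or DNP-based, 0.1% DMSO final) were co-incubated 6 h at 37° C. with 100 nM of the corresponding fluorescent antibody.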

Test [1] deals with T1, ASGPR receptor on the cell surface (HepG2 cells) (Homo sapiens, UniProt P07306).
T1 construct: host or cells: HepG2
T1 sequence (P07306 1-291): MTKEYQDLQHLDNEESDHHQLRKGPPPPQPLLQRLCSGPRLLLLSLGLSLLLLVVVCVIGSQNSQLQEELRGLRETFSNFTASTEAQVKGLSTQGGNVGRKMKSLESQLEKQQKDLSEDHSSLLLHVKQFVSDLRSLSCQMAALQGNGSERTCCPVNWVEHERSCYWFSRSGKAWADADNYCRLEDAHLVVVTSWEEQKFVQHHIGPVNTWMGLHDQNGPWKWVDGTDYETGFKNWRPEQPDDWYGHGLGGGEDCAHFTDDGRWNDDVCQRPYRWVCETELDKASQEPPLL
T1 sequence (P07307 1-311 partner): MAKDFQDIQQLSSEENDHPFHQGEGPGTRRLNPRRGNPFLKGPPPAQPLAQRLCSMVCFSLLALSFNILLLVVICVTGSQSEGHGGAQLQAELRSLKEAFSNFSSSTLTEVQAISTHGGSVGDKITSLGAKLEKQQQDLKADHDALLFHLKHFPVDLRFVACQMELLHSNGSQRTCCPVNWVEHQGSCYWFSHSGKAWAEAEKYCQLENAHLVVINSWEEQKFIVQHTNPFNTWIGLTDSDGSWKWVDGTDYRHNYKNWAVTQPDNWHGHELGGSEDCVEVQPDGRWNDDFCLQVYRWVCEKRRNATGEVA
As to the kind of experiment: Ternary complex formation assay (flow cytometry, HepG2). The class given is cell-based. An excerpt:
The ternary complex formation assay is designed to identify the concentration of Degrader required to form a complex between the degrader, a constant concentration of fluorescently-labeled antibody and the ASGPR receptor on the cell surface. The peak mean fluorescence intensity (MFI) occurs at the optimal degrader concentration for ternary complex formation. Sub-optimal concentrations of degrader (too much or too little) results in fewer complexes formed and a reduced […].
Human IgG (Sigma-Aldrich, 14506) was covalently labeled with Alexa Fluor 488 using the Alexa Fluor™ 488 Protein Labeling Kit (Thermo Fisher, A10235) following the manufacturer's instructions. HepG2 cells (ATCC, HIB-8065) were cultured to about 70% confluence and harvested by trypsinization. Single cell suspensions of HepG2 cells were plated in 96 well plates at 1×10^5 cells/well in cell culture media (DMEM supplemented with […]) and placed at 4° C. For studies using human IgG, cells were incubated with 100 nM AF488-labeled anti-human IgG and serial dilutions of IgG-based degrader for 1 hour at 4° C. For studies using DNP, cells were incubated with 100 nM AF488-labeled polyclonal rabbit anti-dinitrophenyl (DNP) antibodies (ThermoFisher) and serial dilutions of DNP-based degrader for 1 hour at 4° C. After washing once with ice-cold PBS containing 0.1% BSA and 0.1% sodium azide, cells were resuspended in 150 uL PBS+0.1% BSA and cell-associated AF488 fluorescence was measured by flow cytometry using the iQue® Screener PLUS Flow Cytometer (IntelliCyt).
In general terms: In flow cytometry, cells or beads pass a laser one at a time.

In a further test the target is T2, ASGPR (Homo sapiens, UniProt P07306).
T2 sequence (P07306 1-291): T1 sequence (P07306 1-291)
As to the kind of experiment: Affinity to ASGPR by surface plasmon resonance (SPR).

Setting [2] is: Homo sapiens, HepG2, 6 h, read-out: Uptake Assay EC50 (nM).
[3] abbreviates: Ternary Complex EC50 (nM), HepG2 cells, 100 nM AF488-labeled antibody, 1 hour at 4° C., class symbols.
[4] abbreviates: HepG2 cells, 100 nM AF488-labeled antibody, 37° C. for 6 hours, class symbols, read-out: Uptake Assay EC50.

Where two headings read alike, the source gives them in different places. Some results are limits rather than exact numbers.

One may read the EC50 as the concentration giving half of the maximal effect. In general, Kd refers to the concentration at which binding is half-saturated. Low readings indicate higher affinity, high ones lower affinity. Take `O=C(CCOCCNC(=O)COCCOCCOCCNc1ccc([N+](=O)[O-])cc1[N+](=O)[O-])NCCOCCOCCOCCOC[C@@]12CO[C@@H](O1)[C@H](Nc1nc(Cl)ns1)[C@@H](O)[C@H]2O` [Compound 29, N-(1-((1S,2R,3R,4R,5S)-4-((3-chloro-1,2,4-thiadiazol-5-yl)amino)-2,3-dihydroxy-6,8-dioxabicyclo[3.2.1]octan-1-yl)-2,5,8,11-tetraoxatridecan-13-yl)-3-((14-((2,4-dinitrophenyl)amino)-4-oxo-6,9,12-trioxa-3-azatetradecyl)oxy)propanamide]: the EC50 (in the test on HepG2 cells (setting [2]); in test [1] (setting [3])) was under 100 nM in each case. The compound further came in with a Kd at ASGPR of 100 to 500 nM.
Consider `O=C(CCOCC(COCCC(=O)NCCOCCOCCOCCOC[C@@]12CO[C@@H](O1)[C@H](Nc1nc(Cl)ns1)[C@@H](O)[C@H]2O)NC(=O)COCCOCCOCCNc1ccc([N+](=O)[O-])cc1[N+](=O)[O-])NCCOCCOCCOCCOC[C@@]12CO[C@@H](O1)[C@H](Nc1nc(Cl)ns1)[C@@H](O)[C@H]2O` [Compound 30, 3,3′-((2-(2-(2-(2-(2-((2,4-dinitrophenyl)amino)ethoxy)ethoxy)ethoxy)acetamido)propane-1,3-diyl)bis(oxy))bis(N-(1-((1S,2R,3R,4R,5S)-4-((3-chloro-1,2,4-thiadiazol-5-yl)amino)-2,3-dihydroxy-6,8-dioxabicyclo[3.2.1]octan-1-yl)-2,5,8,11-tetraoxatridecan-13-yl)propanamide)], for which the EC50 (in the test on HepG2 cells (setting [2]); in test [1] (setting [3])) was under 100 nM throughout. On ASGPR, the Kd was under 100 nM.
Turning to `O=[N+]([O-])c1ccc(NCCOCCOCCOCCOC[C@@]23CO[C@@H](O2)[C@H](Nc2nc(Cl)ns2)[C@@H](O)[C@H]3O)c([N+](=O)[O-])c1` [Compound 27, (1S,2R,3R,4R,5S)-4-((3-chloro-1,2,4-thiadiazol-5-yl)amino)-1-(13-((2,4-dinitrophenyl)amino)-2,5,8,11-tetraoxatridecyl)-6,8-dioxabicyclo[3.2.1]octane-2,3-diol], the EC50 (in the test on HepG2 cells (setting [2]); in test [1] (setting [3])) was under 100 nM each time. The compound further registered a Kd at ASGPR of under 100 nM.
With `O=C(CCOCC(COCCC(=O)NCCOCCOCCOCCOC[C@@]12CO[C@@H](O1)[C@H](Nc1nccc(C(F)(F)F)n1)[C@@H](O)[C@H]2O)NC(=O)COCCOCCOCCNc1ccc([N+](=O)[O-])cc1[N+](=O)[O-])NCCOCCOCCOCCOC[C@@]12CO[C@@H](O1)[C@H](Nc1nccc(C(F)(F)F)n1)[C@@H](O)[C@H]2O` [Compound 31, 3,3′-((2-(2-(2-(2-(2-((2,4-dinitrophenyl)amino)ethoxy)ethoxy)ethoxy)acetamido)propane-1,3-diyl)bis(oxy))bis(N-(1-((1S,2R,3R,4R,5S)-2,3-dihydroxy-4-((4-(trifluoromethyl)pyrimidin-2-yl)amino)-6,8-dioxabicyclo[3.2.1]octan-1-yl)-2,5,8,11-tetraoxatridecan-13-yl)propanamide)], the EC50 (in the test on HepG2 cells (setting [2]); in test [1] (setting [3])) was under 100 nM in each case. The compound also showed a Kd at ASGPR of under 100 nM.
Turning to `CC(C)C[C@@H]1NC(=O)[C@H](Cc2c[nH]cn2)NC(=O)[C@H](Cc2c[nH]c3ccccc23)NC(=O)[C@H](C)NC(=O)[C@@H](NC(=O)[C@H](CC(=O)O)NC(=O)CCOCCOCCOCCOCCNC(=O)CCCc2cn(CCCCCC(=O)NC(COCCC(=O)NCCOCCOCCOCCOC[C@H]3OC[C@H](Nc4nccc(C(F)(F)F)n4)[C@@H](O)[C@H]3O)(COCCC(=O)NCCOCCOCCOCCOC[C@H]3OC[C@H](Nc4nccc(C(F)(F)F)n4)[C@@H](O)[C@H]3O)COCCC(=O)NCCOCCOCCOCCOC[C@H]3OC[C@H](Nc4nccc(C(F)(F)F)n4)[C@@H](O)[C@H]3O)nn2)CSSC[C@@H](C(=O)N[C@H](C(N)=O)[C@@H](C)O)NC(=O)[C@H](Cc2c[nH]c3ccccc23)NC(=O)[C@H](C(C)C)NC(=O)[C@H](CC(C)C)NC(=O)[C@H](CCC(=O)O)NC(=O)CNC1=O` [Compound 90], the EC50 with HepG2 cells (HepG2 cells, read-out: Uptake EC50) is under 100 nM; in test [1], under 100 nM. For the same compound, the Kd on ASGPR was under 100 nM.
As to `CC(C)C[C@@H]1NC(=O)[C@H](Cc2c[nH]cn2)NC(=O)[C@H](Cc2c[nH]c3ccccc23)NC(=O)[C@H](C)NC(=O)[C@@H]2CSSC[C@H](NC(=O)[C@H](Cc3c[nH]c4ccccc34)NC(=O)[C@H](C(C)C)NC(=O)[C@H](CC(C)C)NC(=O)[C@H](CCC(=O)O)NC(=O)CNC1=O)C(=O)N[C@@H]([C@@H](C)O)C(=O)N1CCC[C@@H]1C(=O)N1C[C@@H](NC(=O)COCCOCCOCC(=O)NC(COCCC(=O)NCCOCCOCCOCCOC[C@H]3OC[C@H](Nc4nccc(C(F)(F)F)n4)[C@@H](O)[C@H]3O)COCCC(=O)NCCOCCOCCOCCOC[C@H]3OC[C@H](Nc4nccc(C(F)(F)F)n4)[C@@H](O)[C@H]3O)C[C@H]1C(=O)N[C@@H](CC(=O)O)C(=O)N2` [Compound 38], the EC50 was under 100 nM in the test with HepG2 cells (setting [4]) and under 100 nM in test [1] (HepG2 cells, 100 nM AF488-labeled antibody, 1 hour at 4° C., class symbols, read-out: Ternary Complex EC50). Besides, the Kd at ASGPR is under 100 nM.
As to `O=[N+]([O-])c1ccc(NCCOCCOCCOCCOCCOCCOCCOC[C@@]23CO[C@@H](O2)[C@H](Nc2nc(Cl)ns2)[C@@H](O)[C@H]3O)c([N+](=O)[O-])c1` [Compound 26, (1S,2R,3R,4R,5S)-4-((3-chloro-1,2,4-thiadiazol-5-yl)amino)-1-(22-((2,4-dinitrophenyl)amino)-2,5,8,11,14,17,20-heptaoxadocosyl)-6,8-dioxabicyclo[3.2.1]octane-2,3-diol], the EC50 (in the test on HepG2 cells (setting [2]); in test [1] (setting [3])) was under 100 nM throughout.
As for `CC(C)C[C@@H]1NC(=O)[C@H](Cc2c[nH]cn2)NC(=O)[C@H](Cc2c[nH]c3ccccc23)NC(=O)[C@H](C)NC(=O)[C@@H]2CSSC[C@H](NC(=O)[C@H](Cc3c[nH]c4ccccc34)NC(=O)[C@H](C(C)C)NC(=O)[C@H](CC(C)C)NC(=O)[C@H](CCC(=O)O)NC(=O)CNC1=O)C(=O)N[C@@H]([C@@H](C)O)C(=O)N1CCC[C@@H]1C(=O)N1C[C@@H](NC(=O)COCCOCCOCC(=O)NC(COCCC(=O)NCCOCCOCCOCCOC[C@H]3OC[C@H](Nc4cncc(C(F)(F)F)n4)[C@@H](O)[C@H]3O)COCCC(=O)NCCOCCOCCOCCOC[C@H]3OC[C@H](Nc4cncc(C(F)(F)F)n4)[C@@H](O)[C@H]3O)C[C@H]1C(=O)N[C@@H](CC(=O)O)C(=O)N2` [Compound 40], the EC50 (in the test with HepG2 cells (setting [4]); in test [1]) was under 100 nM in each case.
With `CC(C)C[C@@H]1NC(=O)[C@H](Cc2c[nH]cn2)NC(=O)[C@H](Cc2c[nH]c3ccccc23)NC(=O)[C@H](C)NC(=O)[C@@H]2CSSC[C@H](NC(=O)[C@H](Cc3c[nH]c4ccccc34)NC(=O)[C@H](C(C)C)NC(=O)[C@H](CC(C)C)NC(=O)[C@H](CCC(=O)O)NC(=O)CNC1=O)C(=O)N[C@@H]([C@@H](C)O)C(=O)N1CCC[C@@H]1C(=O)N1C[C@@H](NC(=O)COCC(=O)NC(COCCC(=O)NCCOCCOCCOCCOC[C@H]3OC[C@H](Nc4cncc(C(F)(F)F)n4)[C@@H](O)[C@H]3O)COCCC(=O)NCCOCCOCCOCCOC[C@H]3OC[C@H](Nc4cncc(C(F)(F)F)n4)[C@@H](O)[C@H]3O)C[C@H]1C(=O)N[C@@H](CC(=O)O)C(=O)N2` [Compound 43], the EC50 (in the test on HepG2 cells (setting [4]); in test [1]) was under 100 nM in each case.

The values are drawn from patent US12091402B2 (Avilar Therapeutics, Inc., priority 2021, dated 2024).
